Test results published in patent publication US10201532B2, “Compounds and their use” (ALLECRA THERAPEUTICS GMBH, priority 2010, dated 2019).

Assays:
[1] = system: K. pneumoniae ATCC 700603 (SHV18); assay: Disk zone of inhibition, antibiotic + Compound-1 on same disk (Methodology 2); assay type: cell-based, Klebsiella pneumoniae; conditions: CAZ 30 μg or IPM 10 μg disk alone
Text: (§1) In this experiment, Compound-1 is used as a diagnostic reagent for the detection of β-lactamases belonging to the families KPC & ESBL (e.g., SHV18) producing Enterobacteriaceae. A simple set of absorbent paper disks impregnated with antibiotic on agar medium is used for the detection.
(§2) • 0.5 McFarland of the test organism was inoculated at 1:10 dilution on Muller • Hinton Agar plates • Test organisms: Klebsiella pneumoniae (K.p) ATCC BAA-1705, Klebsiella pneumoniae ATCC 700603, Escherichia coli (E.c) Ecoli233 • Carbapenem (e.g., Imipenem [IPM] 10 μg) and cephalosporin (e.g., Ceftazidime [CAZ] 30 μg) paper disks (7 mm) were placed on the inoculated agar plates • Compound-1 (60 μg) disk was placed at a distance of 7 & 10 mm from the carbapenem and cephalosporin disks. • The presence of expressed carbapenemases or ESBLs was measured as the expansion of Imipenem or Ceftazidime's inhibition zones due to synergy in the presence of Compound-1. Results:
(§3) The methodology remains the same as Methodology 1 except the following change • Compound-1 (60 μg) was added on the same disk in combination with a carbapenem (e.g., Imipenem 10 μg) or cephalosporin (e.g., Ceftazidime 30 μg) and placed on the inoculated agar plate. • The presence of the expressed carbapenemases or ESBLs was measured as an increase in Imipenem or Ceftazidime's zone diameter in combination with Compound-1 compared to antibiotic alone. Results

E. coli Ecoli233 (KPC3) [2] = assay: as above; assay type: cell-based, Escherichia coli; conditions: CAZ 30 μg or IPM 10 μg disk alone
Text: as §1
as §2, with “Compound-1.” for “Compound-1. Results:”
as §3

[3] = system: KPC-2 producing K. pneumoniae (ATCC BAA-1705); assay: Synergistic broth micro-dilution MIC (checkerboard); assay type: cell-based, Klebsiella pneumoniae
[4] = system: KPC-3 expressing E. coli (J53 R6206); assay: as above; assay type: cell-based, Escherichia coli; conditions: no BLI
[5] = system: E. coli ATCC 25922 (β-lac-ve); assay: Disk zone of inhibition, antibiotic + Compound-1 on same disk (Methodology 2); assay type: cell-based, Escherichia coli; conditions: CAZ 30 μg or IPM 10 μg disk alone; ATCC 25922
[6] = system: K. pneumoniae ATCC BAA-1705 (KPC2); assay: as above; assay type: cell-based, Klebsiella pneumoniae; conditions: CAZ 30 μg or IPM 10 μg disk alone
Text: as §1
as §2, with “Compound-1.” for “Compound-1. Results:”
as §3

E. coli BAA-201 (TEM-3) = assay: MIC of Piperacillin with inhibitor, ESBL isolates; assay type: cell-based
E. coli BAA-200 (SHV-4) = assay: MIC of Piperacillin with inhibitor, ESBL isolates; assay type: cell-based, Escherichia coli
E. coli BAA-197 (TEM-12) = assay: MIC of Piperacillin with inhibitor, ESBL isolates; assay type: cell-based, Escherichia coli
E. coli BAA-199 (SHV-3) = assay: MIC of Piperacillin with inhibitor, ESBL isolates; assay type: cell-based, Escherichia coli
[7] = system: K. pneumoniae NCTC 13438 (KPC3); assay: Synergistic broth micro-dilution MIC; assay type: cell-based, Klebsiella pneumoniae; conditions: BLI at 4 μg/mL
[8] = system: P. mirabilis BAA-663 (TEM-89); assay: MIC of Piperacillin with inhibitor, ESBL isolates; assay type: cell-based
[9] = system: K. pneumoniae 700603 (SHV-18); assay: MIC of Piperacillin with inhibitor, ESBL isolates; assay type: cell-based, Klebsiella pneumoniae
[10] = system: E. cloacae 01 MGH 049 (KPC2, AmpC); assay: Synergistic broth micro-dilution MIC; assay type: cell-based; conditions: BLI at 4 μg/mL
E. coli Ecoli233 (KPC3) [11] = assay: Synergistic broth micro-dilution MIC; assay type: cell-based, Escherichia coli
E. coli BAA-198 (TEM-26) = assay: MIC of Piperacillin with inhibitor, ESBL isolates; assay type: cell-based, Escherichia coli
[12] = system: K. pneumoniae UMM3 (KPC2); assay: Synergistic broth micro-dilution MIC; assay type: cell-based, Klebsiella pneumoniae; conditions: BLI at 4 μg/mL

Q: Which “Zone of inhibition (ZOI), antibiotic alone” value (shortened to “Zone of inhibition (ZOI)”) [1] does the source give for `CC(C)(O/N=C(\C(=O)N[C@@H]1C(=O)N2C(C(=O)[O-])=C(C[n+]3ccccc3)CS[C@H]12)c1csc(N)n1)C(=O)O` [Ceftazidime] here?
A: 12 mm

Q: And the “Zone of inhibition (ZOI)” value (E. coli Ecoli233 (KPC3) [2])?
A: 11 mm

Q: What about the MIC ([3]; Klebsiella pneumoniae, ATCCBAA1705, no BLI, ATCC BAA-1705, read-out: MIC of antibiotic alone (no BLI)) of the same compound?
A: > 128 µg/mL

Q: What about the “MIC of antibiotic alone (no BLI)” value [4] of the same compound?
A: >32 µg/mL

Q: What about the “Zone of inhibition (ZOI)” value [5] of the same compound?
A: 25 mm

Q: And the “Zone of inhibition (ZOI)” value [6]?
A: 12 mm

Q: With `C[C@]1(Cn2ccnc2)[C@H](C(=O)O)N2C(=O)C[C@H]2S1(=O)=O` [Compound-M, (2S,3S,5R)-3-(imidazol-1-ylmethyl)-3-methyl-4,4,7-trioxo-4-thia-1-aza-bicyclo[3.2.0]heptane-2-carboxylic acid] as the compound, how does the “MIC of Piperacillin with inhibitor” value (E. coli BAA-201 (TEM-3); inhibitor at 1 μg/mL) read?
A: 4 µg/mL

Q: And the “MIC of Piperacillin with inhibitor” value (E. coli BAA-201 (TEM-3); inhibitor at 2 μg/mL)?
A: 4 µg/mL

Q: What about the “MIC of Piperacillin with inhibitor” value (E. coli BAA-201 (TEM-3); inhibitor at 4 μg/mL) of the same compound?
A: 4 µg/mL

Q: What about the “MIC of Piperacillin with inhibitor” value (E. coli BAA-200 (SHV-4); inhibitor at 1 μg/mL) of the same compound?
A: >128 µg/mL

Q: And the “MIC of Piperacillin with inhibitor” value (E. coli BAA-200 (SHV-4); inhibitor at 2 μg/mL)?
A: >128 µg/mL

Q: And the “MIC of Piperacillin with inhibitor” value (E. coli BAA-200 (SHV-4); inhibitor at 4 μg/mL)?
A: >128 µg/mL

Q: And the “MIC of Piperacillin with inhibitor” value (E. coli BAA-197 (TEM-12); inhibitor at 1 μg/mL)?
A: 4 µg/mL

Q: What about the “MIC of Piperacillin with inhibitor” value (E. coli BAA-197 (TEM-12); inhibitor at 2 μg/mL) of the same compound?
A: 8 µg/mL

Q: What about the “MIC of Piperacillin with inhibitor” value (E. coli BAA-197 (TEM-12); inhibitor at 4 μg/mL) of the same compound?
A: 4 µg/mL

Q: And the “MIC of Imipenem in combination with BLI” value ([3]; BLI at 4 μg/mL, ATCC BAA-1705)?
A: 8 µg/mL

Q: What about the “MIC of Imipenem in combination with BLI” value ([3]; BLI at 16 μg/mL, ATCC BAA-1705) of the same compound?
A: 8 µg/mL

Q: And the “Activity with imipenem against the KPC (2 & 3) producing strains, in words” value ([3]; summary of Table 2, all five strains)?
A: only moderately active

Q: What about the “MIC of Piperacillin with inhibitor” value (E. coli BAA-199 (SHV-3); inhibitor at 1 μg/mL) of the same compound?
A: >128 µg/mL

Q: And the “MIC of Piperacillin with inhibitor” value (E. coli BAA-199 (SHV-3); inhibitor at 2 μg/mL)?
A: >128 µg/mL

Q: And the “MIC of Piperacillin with inhibitor” value (E. coli BAA-199 (SHV-3); inhibitor at 4 μg/mL)?
A: >128 µg/mL

Q: And the “MIC of Imipenem in combination with BLI” value [7]?
A: 64 µg/mL

Q: And the “MIC of Piperacillin with inhibitor” value ([8]; inhibitor at 1 μg/mL)?
A: 64 µg/mL

Q: What about the “MIC of Piperacillin with inhibitor” value ([8]; inhibitor at 2 μg/mL) of the same compound?
A: >128 µg/mL

Q: And the “MIC of Piperacillin with inhibitor” value ([8]; inhibitor at 4 μg/mL)?
A: >128 µg/mL

Q: And the “MIC of Piperacillin with inhibitor” value ([9]; inhibitor at 1 μg/mL)?
A: 16 µg/mL

Q: And the “MIC of Piperacillin with inhibitor” value ([9]; inhibitor at 2 μg/mL)?
A: 32 µg/mL

Q: What about the “MIC of Piperacillin with inhibitor” value ([9]; inhibitor at 4 μg/mL) of the same compound?
A: 16 µg/mL

Q: What about the “MIC of Imipenem in combination with BLI” value [10] of the same compound?
A: 8 µg/mL

Q: And the “MIC of Imipenem in combination with BLI” value (E. coli Ecoli233 (KPC3) [11]; BLI at 4 μg/mL)?
A: 16 µg/mL

Q: And the “MIC of Imipenem in combination with BLI” value (E. coli Ecoli233 (KPC3) [11]; BLI at 16 μg/mL)?
A: 16 µg/mL

Q: What about the “MIC of Piperacillin with inhibitor” value (E. coli BAA-198 (TEM-26); inhibitor at 1 μg/mL) of the same compound?
A: 4 µg/mL

Q: And the “MIC of Piperacillin with inhibitor” value (E. coli BAA-198 (TEM-26); inhibitor at 2 μg/mL)?
A: 4 µg/mL

Q: What about the “MIC of Piperacillin with inhibitor” value (E. coli BAA-198 (TEM-26); inhibitor at 4 μg/mL) of the same compound?
A: 4 µg/mL

Q: What about the “MIC of Imipenem in combination with BLI” value [12] of the same compound?
A: 8 µg/mL
